Assay results published in patent US6518243B1, “Desleucyl glycopeptide antibiotics and methods of making same” (Trustees of Princeton University, priority 1999, dated 2003).

Tests used:
Experiment in all cases: Zone of inhibition screen, 96 well agar array format
Format in all cases: cell-based
Design in all cases: scale not given here
[1] = tested on: S. aureus (ATCC 29213)
Method in brief: (§1)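 Antibacterial testing on a 96-well agar array; each compound screened separately.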

[2] = tested on: E. faecalis (CL 4877)
Method in brief: as §1

[3] = tested on: S. epidermidis (ATCC 12228)
Method in brief: as §1

[4] = zone of inhibition relative to 1 mg/ml stock solution of p-chlorobiphenylvancomycin
[5] = zone of inhibition relative to 1 mg/ml p-chlorobiphenylvancomycin

CC(=O)N1CCCC1C(=O)NC1C(=O)NC(CC(N)=O)C(=O)NC2C(=O)NC3C(=O)NC(C(=O)NC(C(=O)O)c4cc(O)cc(O)c4-c4cc3ccc4O)C(O)c3ccc(c(Cl)c3)Oc3cc2cc(c3OC2OC(CO)C(O)C(O)C2OC2CC(C)(NCc3ccc(-c4ccc(Cl)cc4)cc3)C(O)C(C)O2)Oc2ccc(cc2Cl)C1O (stereo not drawn) [Compound 116]
2: zone score, S. aureus ATCC 29213 [1, 4] | zone score, E. faecalis CL 4877 [2, 4] | zone score, S. epidermidis ATCC 12228 [3, 4]

CC(=O)OCC(N)C(=O)NC1C(=O)NC(CC(N)=O)C(=O)NC2C(=O)NC3C(=O)NC(C(=O)NC(C(=O)O)c4cc(O)cc(O)c4-c4cc3ccc4O)C(O)c3ccc(c(Cl)c3)Oc3cc2cc(c3OC2OC(CO)C(O)C(O)C2OC2CC(C)(NCc3ccc(-c4ccc(Cl)cc4)cc3)C(O)C(C)O2)Oc2ccc(cc2Cl)C1O (stereo not drawn) [Compound 87]
2: zone score, S. aureus ATCC 29213 [1, 4] | zone score, E. faecalis CL 4877 [2, 4] | zone score, S. epidermidis ATCC 12228 [3, 4]

CC(=O)NCC(=O)NCC(=O)NC1C(=O)NC(CC(N)=O)C(=O)NC2C(=O)NC3C(=O)NC(C(=O)NC(C(=O)O)c4cc(O)cc(O)c4-c4cc3ccc4O)C(O)c3ccc(c(Cl)c3)Oc3cc2cc(c3OC2OC(CO)C(O)C(O)C2OC2CC(C)(NCc3ccc(-c4ccc(Cl)cc4)cc3)C(O)C(C)O2)Oc2ccc(cc2Cl)C1O (stereo not drawn) [Compound 120]
2: zone score, S. aureus ATCC 29213 [1, 4] | zone score, E. faecalis CL 4877 [2, 4] | zone score, S. epidermidis ATCC 12228 [3, 4]

COc1ccc(C(=O)NC2C(=O)NC(CC(N)=O)C(=O)NC3C(=O)NC4C(=O)NC(C(=O)NC(C(=O)O)c5cc(O)cc(O)c5-c5cc4ccc5O)C(O)c4ccc(c(Cl)c4)Oc4cc3cc(c4OC3OC(CO)C(O)C(O)C3OC3CC(C)(NCc4ccc(-c5ccc(Cl)cc5)cc4)C(O)C(C)O3)Oc3ccc(cc3Cl)C2O)cc1OC (stereo not drawn) [Compound 253]
2: zone score, S. aureus ATCC 29213 [1, 5] | zone score, E. faecalis CL 4877 [2, 5] | zone score, S. epidermidis ATCC 12228 [3, 5]

CC(NC(=O)CNC(=O)CNC(=O)OCc1ccccc1)C(=O)NC1C(=O)NC(CC(N)=O)C(=O)NC2C(=O)NC3C(=O)NC(C(=O)NC(C(=O)O)c4cc(O)cc(O)c4-c4cc3ccc4O)C(O)c3ccc(c(Cl)c3)Oc3cc2cc(c3OC2OC(CO)C(O)C(O)C2OC2CC(C)(NCc3ccc(-c4ccc(Cl)cc4)cc3)C(O)C(C)O2)Oc2ccc(cc2Cl)C1O (stereo not drawn) [Compound 213]
2: zone score, S. aureus ATCC 29213 [1, 5] | zone score, E. faecalis CL 4877 [2, 5] | zone score, S. epidermidis ATCC 12228 [3, 5]

CC(=O)Oc1ccc(C(=O)NC2C(=O)NC(CC(N)=O)C(=O)NC3C(=O)NC4C(=O)NC(C(=O)NC(C(=O)O)c5cc(O)cc(O)c5-c5cc4ccc5O)C(O)c4ccc(c(Cl)c4)Oc4cc3cc(c4OC3OC(CO)C(O)C(O)C3OC3CC(C)(NCc4ccc(-c5ccc(Cl)cc5)cc4)C(O)C(C)O3)Oc3ccc(cc3Cl)C2O)cc1 (stereo not drawn) [Compound 266]
2: zone score, S. aureus ATCC 29213 [1, 5] | zone score, E. faecalis CL 4877 [2, 5] | zone score, S. epidermidis ATCC 12228 [3, 5]

CC1OC(OC2C(Oc3c4cc5cc3Oc3ccc(cc3Cl)C(O)C3NC(=O)C(NC(=O)C5NC(=O)C(CC(N)=O)NC(=O)C(NC(=O)c5ccccn5)C(O)c5ccc(c(Cl)c5)O4)c4ccc(O)c(c4)-c4c(O)cc(O)cc4C(C(=O)O)NC3=O)OC(CO)C(O)C2O)CC(C)(NCc2ccc(-c3ccc(Cl)cc3)cc2)C1O (stereo not drawn) [Compound 312]
2: zone score, S. aureus ATCC 29213 [1, 5] | zone score, E. faecalis CL 4877 [2, 5] | zone score, S. epidermidis ATCC 12228 [3, 5]

CC1OC(OC2C(Oc3c4cc5cc3Oc3ccc(cc3Cl)C(O)C3NC(=O)C(NC(=O)C5NC(=O)C(CC(N)=O)NC(=O)C(NC(=O)c5ccccc5SCCS(=O)(=O)c5ccc(Cl)cc5)C(O)c5ccc(c(Cl)c5)O4)c4ccc(O)c(c4)-c4c(O)cc(O)cc4C(C(=O)O)NC3=O)OC(CO)C(O)C2O)CC(C)(NCc2ccc(-c3ccc(Cl)cc3)cc2)C1O (stereo not drawn) [Compound 301]
2: zone score, S. aureus ATCC 29213 [1, 5] | zone score, E. faecalis CL 4877 [2, 5] | zone score, S. epidermidis ATCC 12228 [3, 5]

CC1OC(OC2C(Oc3c4cc5cc3Oc3ccc(cc3Cl)C(O)C3NC(=O)C(NC(=O)C5NC(=O)C(CC(N)=O)NC(=O)C(NC(=O)c5ccc(N)cc5O)C(O)c5ccc(c(Cl)c5)O4)c4ccc(O)c(c4)-c4c(O)cc(O)cc4C(C(=O)O)NC3=O)OC(CO)C(O)C2O)CC(C)(NCc2ccc(-c3ccc(Cl)cc3)cc2)C1O (stereo not drawn) [Compound 274]
2: zone score, S. aureus ATCC 29213 [1, 5] | zone score, E. faecalis CL 4877 [2, 5] | zone score, S. epidermidis ATCC 12228 [3, 5]

CC1OC(OC2C(Oc3c4cc5cc3Oc3ccc(cc3Cl)C(O)C(NC(=O)C3CCCN3C(=O)C3CCCN3)C(=O)NC(CC(N)=O)C(=O)NC5C(=O)NC3C(=O)NC(C(=O)NC(C(=O)O)c5cc(O)cc(O)c5-c5cc3ccc5O)C(O)c3ccc(c(Cl)c3)O4)OC(CO)C(O)C2O)CC(C)(NCc2ccc(-c3ccc(Cl)cc3)cc2)C1O (stereo not drawn) [Compound 86]
2: zone score, S. aureus ATCC 29213 [1, 4] | zone score, E. faecalis CL 4877 [2, 4] | zone score, S. epidermidis ATCC 12228 [3, 4]

CC1OC(OC2C(Oc3c4cc5cc3Oc3ccc(cc3Cl)C(O)C3NC(=O)C(NC(=O)C5NC(=O)C(CC(N)=O)NC(=O)C(NC(=O)Cc5ccc(Cl)cc5Cl)C(O)c5ccc(c(Cl)c5)O4)c4ccc(O)c(c4)-c4c(O)cc(O)cc4C(C(=O)O)NC3=O)OC(CO)C(O)C2O)CC(C)(NCc2ccc(-c3ccc(Cl)cc3)cc2)C1O (stereo not drawn) [Compound 234]
2: zone score, S. aureus ATCC 29213 [1, 5] | zone score, E. faecalis CL 4877 [2, 5] | zone score, S. epidermidis ATCC 12228 [3, 5]

CC(=O)N[C@@H](Cc1c[nH]cn1)C(=O)N[C@H]1C(=O)N[C@@H](CC(N)=O)C(=O)N[C@H]2C(=O)NC3C(=O)N[C@H](C(=O)N[C@@H](C(=O)O)c4cc(O)cc(O)c4-c4cc3ccc4O)[C@H](O)c3ccc(c(Cl)c3)Oc3cc2cc(c3OC2OC(CO)C(O)C(O)C2OC2CC(C)(NCc3ccc(-c4ccc(Cl)cc4)cc3)C(O)C(C)O2)Oc2ccc(cc2Cl)[C@H]1O (stereo partly drawn) [Compound 181]
2: zone score, S. aureus ATCC 29213 [1, 4] | zone score, E. faecalis CL 4877 [2, 4] | zone score, S. epidermidis ATCC 12228 [3, 4]

C=C(CC(=O)OC)C(=O)NC1C(=O)NC(CC(N)=O)C(=O)NC2C(=O)NC3C(=O)NC(C(=O)NC(C(=O)O)c4cc(O)cc(O)c4-c4cc3ccc4O)C(O)c3ccc(c(Cl)c3)Oc3cc2cc(c3OC2OC(CO)C(O)C(O)C2OC2CC(C)(NCc3ccc(-c4ccc(Cl)cc4)cc3)C(O)C(C)O2)Oc2ccc(cc2Cl)C1O (stereo not drawn) [Compound 293]
2: zone score, S. aureus ATCC 29213 [1, 5] | zone score, E. faecalis CL 4877 [2, 5] | zone score, S. epidermidis ATCC 12228 [3, 5]

CC(O)C(N)C(=O)NC1C(=O)NC(CC(N)=O)C(=O)NC2C(=O)NC3C(=O)NC(C(=O)NC(C(=O)O)c4cc(O)cc(O)c4-c4cc3ccc4O)C(O)c3ccc(c(Cl)c3)Oc3cc2cc(c3OC2OC(CO)C(O)C(O)C2OC2CC(C)(NCc3ccc(-c4ccc(Cl)cc4)cc3)C(O)C(C)O2)Oc2ccc(cc2Cl)C1O (stereo not drawn) [Compound 323]
2: zone score, S. aureus ATCC 29213 [1, 5] | zone score, E. faecalis CL 4877 [2, 5] | zone score, S. epidermidis ATCC 12228 [3, 5]

CC(O)CC(=O)N[C@H]1C(=O)N[C@@H](CC(N)=O)C(=O)N[C@H]2C(=O)N[C@H]3C(=O)N[C@H](C(=O)N[C@@H](C(=O)O)c4cc(O)cc(O)c4-c4cc3ccc4O)[C@H](O)c3ccc(c(Cl)c3)Oc3cc2cc(c3O[C@@H]2O[C@H](CO)[C@@H](O)[C@H](O)[C@H]2O[C@@H]2C[C@@](C)(NCc3ccc(-c4ccc(Cl)cc4)cc3)[C@@H](O)[C@@H](C)O2)Oc2ccc(cc2Cl)[C@H]1O (stereo partly drawn) [Compound 262]
2: zone score, S. aureus ATCC 29213 [1, 5] | zone score, E. faecalis CL 4877 [2, 5] | zone score, S. epidermidis ATCC 12228 [3, 5]

CC1OC(OC2C(Oc3c4cc5cc3Oc3ccc(cc3Cl)C(O)C3NC(=O)C(NC(=O)C5NC(=O)C(CC(N)=O)NC(=O)C(NC(=O)C(Cc5c[nH]cn5)NC=O)C(O)c5ccc(c(Cl)c5)O4)c4ccc(O)c(c4)-c4c(O)cc(O)cc4C(C(=O)O)NC3=O)OC(CO)C(O)C2O)CC(C)(NCc2ccc(-c3ccc(Cl)cc3)cc2)C1O (stereo not drawn) [Compound 195]
2: zone score, S. aureus ATCC 29213 [1, 4] | zone score, E. faecalis CL 4877 [2, 4] | zone score, S. epidermidis ATCC 12228 [3, 4]

CC(=O)N1CCCC1C(=O)NC1C(=O)NC(CC(N)=O)C(=O)NC2C(=O)NC3C(=O)NC(C(=O)NC(C(=O)O)c4cc(O)cc(O)c4-c4cc3ccc4O)C(O)c3ccc(c(Cl)c3)Oc3cc2cc(c3OC2OC(CO)C(O)C(O)C2OC2CC(C)(NCc3ccc(-c4ccc(Cl)cc4)cc3)C(O)C(C)O2)Oc2ccc(cc2Cl)C1O (mixture of isomers) [Compound 176]
2: zone score, S. aureus ATCC 29213 [1, 4] | zone score, E. faecalis CL 4877 [2, 4] | zone score, S. epidermidis ATCC 12228 [3, 4]

CC(=O)OC(CC(=O)NC1C(=O)NC(CC(N)=O)C(=O)NC2C(=O)NC3C(=O)NC(C(=O)NC(C(=O)O)c4cc(O)cc(O)c4-c4cc3ccc4O)C(O)c3ccc(c(Cl)c3)Oc3cc2cc(c3OC2OC(CO)C(O)C(O)C2OC2CC(C)(NCc3ccc(-c4ccc(Cl)cc4)cc3)C(O)C(C)O2)Oc2ccc(cc2Cl)C1O)C[N+](C)(C)C (stereo not drawn) [Compound 119]
2: zone score, S. aureus ATCC 29213 [1, 4] | zone score, E. faecalis CL 4877 [2, 4] | zone score, S. epidermidis ATCC 12228 [3, 4]

CC1OC(OC2C(Oc3c4cc5cc3Oc3ccc(cc3Cl)C(O)C3NC(=O)C(NC(=O)C5NC(=O)C(CC(N)=O)NC(=O)C(NC(=O)C5CSC(=O)N5)C(O)c5ccc(c(Cl)c5)O4)c4ccc(O)c(c4)-c4c(O)cc(O)cc4C(C(=O)O)NC3=O)OC(CO)C(O)C2O)CC(C)(NCc2ccc(-c3ccc(Cl)cc3)cc2)C1O (stereo not drawn) [Compound 224]
2: zone score, S. aureus ATCC 29213 [1, 5] | zone score, E. faecalis CL 4877 [2, 5] | zone score, S. epidermidis ATCC 12228 [3, 5]

CC1OC(OC2C(Oc3c4cc5cc3Oc3ccc(cc3Cl)C(O)C3NC(=O)C(NC(=O)C5NC(=O)C(CC(N)=O)NC(=O)C(NC(=O)CO)C(O)c5ccc(c(Cl)c5)O4)c4ccc(O)c(c4)-c4c(O)cc(O)cc4C(C(=O)O)NC3=O)OC(CO)C(O)C2O)CC(C)(NCc2ccc(-c3ccc(Cl)cc3)cc2)C1O (stereo not drawn) [Compound 158]
2: zone score, S. aureus ATCC 29213 [1, 4] | zone score, E. faecalis CL 4877 [2, 4] | zone score, S. epidermidis ATCC 12228 [3, 4]

CC1OC(OC2C(Oc3c4cc5cc3Oc3ccc(cc3Cl)C(O)C3NC(=O)C(NC(=O)C5NC(=O)C(CC(N)=O)NC(=O)C(NC(=O)c5cc6ccccc6[nH]5)C(O)c5ccc(c(Cl)c5)O4)c4ccc(O)c(c4)-c4c(O)cc(O)cc4C(C(=O)O)NC3=O)OC(CO)C(O)C2O)CC(C)(NCc2ccc(-c3ccc(Cl)cc3)cc2)C1O (stereo not drawn) [Compound 291]
2: zone score, S. aureus ATCC 29213 [1, 5] | zone score, E. faecalis CL 4877 [2, 5] | zone score, S. epidermidis ATCC 12228 [3, 5]
